From ChEMBL document CHEMBL5058564, “EUbOPEN Chemogenomics Library 2 (Incucyte)” (2022) come the findings set out here.

Holding throughout (format): toxicity, cell-based
One data set relates to HEK-293T. Put plainly: Incucyte cell viability with HEK293T. The settings on record: human, 10 µM, compound concentration 10 uM.
For a further data set, the system named is Fibroblast. Put plainly: Incucyte cell viability with human fibroblast. As to conditions: 10 µM, compound concentration 10 uM.
The subject of another data set is U2OS. Put plainly: Incucyte cell viability with U2OS. The settings on record: human, 10 µM, compound concentration 10 uM.
[1] abbreviates: 0 h, replicate number 2, timepoint 0 hours.
Setting [2] is: 6 h, replicate number 1, timepoint 6 hours.
[3] abbreviates: 12 h, replicate number 1, timepoint 12 hours.
The mark [4] stands for this setting: 18 h, replicate number 1, timepoint 18 hours.
[5] abbreviates: 18 h, replicate number 2, timepoint 18 hours.
[6] abbreviates: 24 h, replicate number 1, timepoint 24 hours.
[7] abbreviates: 0 h, replicate number 1, timepoint 0 hours.
The mark [8] stands for this setting: 6 h, replicate number 2, timepoint 6 hours.
The mark [9] stands for this setting: 12 h, replicate number 2, timepoint 12 hours.
Where [10] appears, read: 24 h, replicate number 2, timepoint 24 hours.
Further: unitless GR value; below 1 slowed growth and below 0 cell loss.

Consider `NC[C@H](O)c1ccc(O)c(O)c1.O.O=C(O)C(O)C(O)C(=O)O`, for which the “Growth Rate” value with HEK-293T (setting [1]) was 0.69; in the data set on HEK-293T (setting [2]), 0.63; in the data set with HEK-293T (setting [3]) it was 0.75; in the data set on HEK-293T (setting [4]) it was 0.76; in the data set on HEK-293T (setting [5]), 0.8; in the data set with HEK-293T (setting [6]), 0.86. Besides, the “Growth Rate” value in the data set on Fibroblast (setting [7]) is recorded as 0.92; in the data set with Fibroblast (setting [1]), 0.62; in the data set with Fibroblast (setting [2]) it was 0.19; with Fibroblast (setting [3]) it was 0.79; in the data set on Fibroblast (setting [4]), 0.97; with Fibroblast (setting [6]), 0.77. Besides, the “Growth Rate” value is reported as 0.46 with U2OS (setting [1]), 0.72 in the data set with U2OS (setting [8]), 0.93 in the data set with U2OS (setting [9]) and 0.98 in the data set on U2OS (setting [5]).
Regarding `COCCCN1CCC(NC(=O)c2cc(Cl)c(N)c3c2OCC3)CC1` [PRUCALOPRIDE], the “Growth Rate” value came out at 0.99 with HEK-293T (setting [9]); 0.48 in the data set with Fibroblast (setting [7]); 0.89 in the data set on Fibroblast (setting [1]); 0.71 in the data set on Fibroblast (setting [2]); 0.75 in the data set with Fibroblast (setting [8]); 0.6 with Fibroblast (setting [3]). In addition, the “Growth Rate” value with Fibroblast (setting [4]) worked out at 0.86; with U2OS (setting [7]) it was 0.24; in the data set with U2OS (setting [8]), 0.76; with U2OS (setting [9]), 0.99; in the data set with U2OS (setting [4]) it was 0; with U2OS (setting [5]) it was 0.98. The “Growth Rate” value in the data set on U2OS (setting [6]) is 0.1.
In the case of `Cl.Clc1cccc(Cl)c1NC1=NCCN1` [CLONIDINE HYDROCHLORIDE], the “Growth Rate” value is 0.99 in the data set on HEK-293T (setting [7]); 0.43 in the data set on HEK-293T (setting [1]); 0.49 in the data set with HEK-293T (setting [2]); 0.74 in the data set on HEK-293T (setting [3]); 0.54 in the data set on HEK-293T (setting [9]); 0.59 in the data set with HEK-293T (setting [4]). The “Growth Rate” value with HEK-293T (setting [5]) is given as 0.58; in the data set on HEK-293T (setting [6]), 0.85; in the data set on HEK-293T (setting [10]), 0.63; with Fibroblast (setting [7]), 0.82; with Fibroblast (setting [2]) it was 0.94; in the data set on Fibroblast (setting [8]), 0.45. In addition, the “Growth Rate” value with Fibroblast (setting [9]) is 0.46; with Fibroblast (setting [5]), 0.62; in the data set with Fibroblast (setting [6]), 0.9; in the data set with Fibroblast (setting [10]), 0.47; with U2OS (setting [1]), 0.55; in the data set on U2OS (setting [2]), 0.87. The “Growth Rate” value was determined as 0.91 in the data set on U2OS (setting [8]) and 1 in the data set on U2OS (setting [4]).
For `O=C(O)CCC/C=C\CC1C(O)CC(O)C1/C=C/C(O)COc1cccc(Cl)c1` (stereo not given) [CLOPROSTENOL], the “Growth Rate” value in the data set with HEK-293T (setting [1]) is given as 0.63; in the data set with HEK-293T (setting [2]) it was 0.34; in the data set with HEK-293T (setting [8]) it was 0.93; in the data set with HEK-293T (setting [3]) it was 0.74; with HEK-293T (setting [4]), 0.75; in the data set with HEK-293T (setting [5]) it was 0.99. For the same compound, the “Growth Rate” value is reported as 0.95 in the data set with HEK-293T (setting [6]); 0.34 in the data set on Fibroblast (setting [1]); -0.06 with Fibroblast (setting [2]); 0.25 in the data set on Fibroblast (setting [3]); 0.2 in the data set with Fibroblast (setting [4]); 0.18 in the data set on Fibroblast (setting [6]). The “Growth Rate” value with U2OS (setting [7]) is -0.27; with U2OS (setting [1]), -0.99; in the data set with U2OS (setting [8]), 0.74; with U2OS (setting [4]), 0.7.
For the compound `N[C@@]1(C(=O)O)CO[C@H]2[C@H](C(=O)O)[C@H]21` [LY-379268], the “Growth Rate” value in the data set on HEK-293T (setting [7]) was determined as 0.68; in the data set on HEK-293T (setting [1]), 0.79; with HEK-293T (setting [8]), 0.88; in the data set with Fibroblast (setting [1]), 0.44; with Fibroblast (setting [8]) it was 0.16; in the data set on Fibroblast (setting [9]) it was 0.66. Besides, the “Growth Rate” value in the data set with U2OS (setting [7]) is given as -0.44; in the data set on U2OS (setting [1]), -0.79; in the data set with U2OS (setting [8]), 0.99; in the data set with U2OS (setting [5]), 0.92.
As for `NC(N)=Nc1nc(CSCCC(N)=NS(N)(=O)=O)cs1` [FAMOTIDINE], the “Growth Rate” value was 0.72 in the data set with HEK-293T (setting [2]); 0.45 with HEK-293T (setting [8]); 0.65 with HEK-293T (setting [3]); 0.89 with HEK-293T (setting [5]); 0.96 in the data set with HEK-293T (setting [6]); 0.55 with Fibroblast (setting [7]). The “Growth Rate” value was determined as 0.42 in the data set with Fibroblast (setting [1]); 0.22 in the data set with Fibroblast (setting [8]); 0.41 in the data set on Fibroblast (setting [3]); 0.17 in the data set on Fibroblast (setting [9]); 0.4 with Fibroblast (setting [5]); 0.89 in the data set on Fibroblast (setting [10]). For the same compound, the “Growth Rate” value was -1 in the data set with U2OS (setting [1]) and 0.18 in the data set with U2OS (setting [2]).
Consider `CN1CCC(c2c[nH]c3ccc(O)cc23)CC1`, for which the “Growth Rate” value in the data set on HEK-293T (setting [1]) turned out to be 0.25; in the data set on HEK-293T (setting [9]), 0.98; with HEK-293T (setting [4]), 0.98; with HEK-293T (setting [5]) it was 0.89; in the data set with HEK-293T (setting [10]) it was 0.89; in the data set with Fibroblast (setting [7]), 0.18. For the same compound, the “Growth Rate” value with Fibroblast (setting [1]) was -0.25; with Fibroblast (setting [2]), 0.11; with U2OS (setting [7]), 0.81; in the data set on U2OS (setting [1]) it was 0.6; in the data set on U2OS (setting [3]), 0.97.
Turning to `Cl.Cl.NCCc1c[nH]cn1` [HISTAMINE DIHYDROCHLORIDE], the “Growth Rate” value with HEK-293T (setting [7]) turned out to be 0.54; with HEK-293T (setting [1]) it was 0.62; in the data set with HEK-293T (setting [2]) it was 0.99; in the data set on HEK-293T (setting [3]), 0.79; with HEK-293T (setting [4]) it was 0.83; in the data set on HEK-293T (setting [5]), 0.79. For the same compound, the “Growth Rate” value was 0.82 in the data set on HEK-293T (setting [6]); 0.75 in the data set on HEK-293T (setting [10]); 0.45 in the data set on Fibroblast (setting [7]); 0.77 in the data set on Fibroblast (setting [3]); 1 in the data set with Fibroblast (setting [9]); 0.99 in the data set on Fibroblast (setting [4]). For the same compound, the “Growth Rate” value in the data set with Fibroblast (setting [5]) amounted to 0.87; in the data set with Fibroblast (setting [6]), 0.52; with Fibroblast (setting [10]), 0.76; with U2OS (setting [7]), 0.04; in the data set with U2OS (setting [1]), 0.37; in the data set on U2OS (setting [2]) it was 0.35. In addition, the results for the “Growth Rate” value in the data set on U2OS (setting [3]), with U2OS (setting [9]) and with U2OS (setting [4]) were 0.76, 0.97 and 0.74, respectively.
`Cc1c(Cc2ccc3ccccc3n2)c2cc(F)ccc2n1CC(=O)O` [TIMAPIPRANT]: the “Growth Rate” value in the data set with HEK-293T (setting [1]) is given as 0.4; in the data set on HEK-293T (setting [4]), 0.82; with Fibroblast (setting [7]) it was 0.53; in the data set with Fibroblast (setting [1]), 0.31; in the data set on Fibroblast (setting [2]) it was 0.6; in the data set on Fibroblast (setting [3]) it was 0.51. For the same compound, the “Growth Rate” value was 0.8 in the data set on Fibroblast (setting [4]); 0.87 in the data set with Fibroblast (setting [6]); -1 in the data set on U2OS (setting [1]); 0.37 in the data set on U2OS (setting [2]); 0.81 in the data set on U2OS (setting [3]); 0.63 in the data set with U2OS (setting [4]). Also, in the data set with U2OS (setting [5]), the “Growth Rate” value came to 0.96.
For the compound `CC(=O)c1cc(-c2ccccc2OCC2CC2)c2ncccn12`, the “Growth Rate” value amounted to 0.61 in the data set on HEK-293T (setting [7]); 0.98 in the data set with HEK-293T (setting [4]); 0.39 with Fibroblast (setting [1]); 0.72 with Fibroblast (setting [8]); 0.88 with Fibroblast (setting [9]); 0.8 in the data set with U2OS (setting [7]). For the same compound, the “Growth Rate” value was 0.26 with U2OS (setting [1]); 0.45 with U2OS (setting [2]); 0.99 in the data set with U2OS (setting [8]); 0.98 with U2OS (setting [4]); 0.98 in the data set with U2OS (setting [6]).
